Columns and labels:
SF-539 = assay: In vitro cytotoxicity (SRB); assay type: cell-based, human; conditions: SF-539 (CNS); 48 h continuous drug exposure
Method: (§1) The compounds were evaluated for in vitro anticancer activity against sixty human tumour cells derived from nine cancer types (leukemia, non-small-cell lung, colon, CNS, melanoma, ovarian, prostate, and breast cancer) as shown in Table 1a. For each compound, dose response curves for each cell line were measured at a minimum of five concentrations at 10 fold dilutions. A protocol of 48 h continuous drug exposure was used and a sulforhodamine B (SRB) protein assay was used to estimate cell viability or growth. The concentration causing 50% cell growth inhibition (GI50), total cell growth inhibition (TGI 0% growth) and 50% cell death (LC50, −50% growth) compared with the control was calculated. The Log10 GI50 (concentration in mol/L causing 50% growth inhibition) values for Cinnamido-pyrrolo[2,1-c][1,4]benzodiazepine (8b) is listed in Table 2.

NCI/ADR-RES = assay: In vitro cytotoxicity (SRB); assay type: cell-based, human; conditions: NCI/ADR-RES (Breast); 48 h continuous drug exposure
Method: as §1

SF-268 = assay: In vitro cytotoxicity (SRB); assay type: cell-based, human; conditions: SF-268 (CNS); 48 h continuous drug exposure
Method: as §1

OVCAR-8 = assay: In vitro cytotoxicity (SRB); assay type: cell-based, human; conditions: OVCAR-8 (Ovarian); 48 h continuous drug exposure
Method: as §1

RXF 393 = assay: In vitro cytotoxicity (SRB); assay type: cell-based, human; conditions: RXF 393 (Renal); 48 h continuous drug exposure
Method: as §1

MDA-MB-435 = assay: In vitro cytotoxicity (SRB); assay type: cell-based, human; conditions: MDA-MB-435 (Breast); 48 h continuous drug exposure
Method: as §1

SF-295 = assay: In vitro cytotoxicity (SRB); assay type: cell-based, human; conditions: SF-295 (CNS); 48 h continuous drug exposure
Method: as §1

IGROV1 = assay: In vitro cytotoxicity (SRB); assay type: cell-based, human; conditions: IGROV1 (Ovarian); 48 h continuous drug exposure
Method: as §1

HCT-116 = assay: In vitro cytotoxicity (SRB); assay type: cell-based, human; conditions: HCT-116 (Colon); 48 h continuous drug exposure
Method: as §1

MCF7 = assay: In vitro cytotoxicity (SRB); assay type: cell-based, human; conditions: MCF7 (Breast); 48 h continuous drug exposure
Method: as §1

K-562 = assay: In vitro cytotoxicity (SRB); assay type: cell-based, human; conditions: K-562 (Leukemia); 48 h continuous drug exposure
Method: as §1

ACHN = assay: In vitro cytotoxicity (SRB); assay type: cell-based, human; conditions: ACHN (Renal); 48 h continuous drug exposure
Method: as §1

HL-60(TB) = assay: In vitro cytotoxicity (SRB); assay type: cell-based, human; conditions: HL-60(TB) (Leukemia); 48 h continuous drug exposure
Method: as §1

UO-31 = assay: In vitro cytotoxicity (SRB); assay type: cell-based, human; conditions: UO-31 (Renal); 48 h continuous drug exposure
Method: as §1

TK-10 = assay: In vitro cytotoxicity (SRB); assay type: cell-based, human; conditions: TK-10 (Renal); 48 h continuous drug exposure
Method: as §1

HS 578T = assay: In vitro cytotoxicity (SRB); assay type: cell-based, human; conditions: HS 578T (Breast); 48 h continuous drug exposure
Method: as §1

BT-549 = assay: In vitro cytotoxicity (SRB); assay type: cell-based, human; conditions: BT-549 (Breast); 48 h continuous drug exposure
Method: as §1

HT29 = assay: In vitro cytotoxicity (SRB); assay type: cell-based, human; conditions: HT29 (Colon); 48 h continuous drug exposure
Method: as §1

OVCAR-5 = assay: In vitro cytotoxicity (SRB); assay type: cell-based, human; conditions: OVCAR-5 (Ovarian); 48 h continuous drug exposure
Method: as §1

NCI-H23 = assay: In vitro cytotoxicity (SRB); assay type: cell-based, human; conditions: NCI-H23 (Non-small cell lung); 48 h continuous drug exposure
Method: as §1

MDA-MB-468 = assay: In vitro cytotoxicity (SRB); assay type: cell-based, human; conditions: MDA-MB-468 (Breast); 48 h continuous drug exposure
Method: as §1

COLO 205 = assay: In vitro cytotoxicity (SRB); assay type: cell-based, human; conditions: COLO 205 (Colon); 48 h continuous drug exposure
Method: as §1

T-47D = assay: In vitro cytotoxicity (SRB); assay type: cell-based, human; conditions: T-47D (Breast); 48 h continuous drug exposure
Method: as §1

SNB-75 = assay: In vitro cytotoxicity (SRB); assay type: cell-based, human; conditions: SNB-75 (CNS); 48 h continuous drug exposure
Method: as §1

DU-145 = assay: In vitro cytotoxicity (SRB); assay type: cell-based, human; conditions: DU-145 (Prostate); 48 h continuous drug exposure
Method: as §1

[1] = tested on: duplex-form calf thymus DNA (CT-DNA); assay: Thermal denaturation studies with calf thymus DNA; assay type: binding; conditions: [PBD]:[DNA] molar ratio 1:5, CT-DNA 100 μM, ligand 20 μM, pH 7.00
Method: Compounds have been subjected to thermal denaturation studies with duplex-form calf thymus DNA (CT-DNA) using an modification of a reported procedure (Newman, M. S. Carcinog-compr. Surv. 1976, 1, 203; (b) Hecht, S. S.; Loy, M.; Hoffman, Carcinog-compr. Surv. 1976, 1, 325). Working solutions in aqueous buffer (10 mM NaH2PO4/Na2HPO4, 1 mM Na2EDTA, pH 7.00+0.01) containing CT-DNA (100 μm in phosphate) and the PBD (20 μm) have been prepared by addition of concentrated PBD solutions in DMSO to obtain a fixed [PBD]/[DNA] molar ratio of 1:5. The DNA-PBD solutions have been incubated at 37° C. for 0 and 18 h prior to analysis. Samples have been monitored at 260 nm using a Beckman DU-800 spectrophotometer fitted with high performance temperature controller, and heated at 1° C. min^−1 in the 40-110° C. range. DNA helix→coil transition temperatures (Tm) have been obtained from the maxima in the d(A260)/dT derivative plots. Drug-induced alterations in DNA melting behavior are given by: ΔTm=Tm(DNA+PBD)−Tm(DNA alone), where the Tm value for the PBD-free CT-DNA is 69.1±0.01.
The DNA binding activity for these Cinnamido-pyrrolo[2,1-c][1,4]benzodiazepines have been examined by thermal denaturation studies using calf thymus (CT) DNA. […] The data for the compounds 8b&d, 11b&d, 14b&d and 17b&d is included in Table 1 for comparison.

## COc1cc(/C=C/C(=O)N2CCN(C(=O)c3cc(OC)c(OC)c(OC)c3)CC2)ccc1OCCCOc1cc2c(cc1OC)C(=O)N1CCC[C@H]1C=N2 [8b, 7-methoxy-8-{3-(2-methoxy-4-(E)-3-oxo-3-[4-(3,4,5-trimethoxybenzoyl)piperazino]-1-propenylphenoxy)propoxy}-(11aS)-2,3,5,11^a-tetrahydro-5H-pyrrolo[2,1-c][1,4]benzo-diazepine-5-one]
SF-539
  GI50: 250 nM
NCI/ADR-RES
  GI50: 1470 nM
SF-268
  GI50: 320 nM
OVCAR-8
  GI50: 260 nM
RXF 393
  GI50: 200 nM
MDA-MB-435
  GI50: 170 nM
SF-295
  GI50: 10 nM
IGROV1
  GI50: 270 nM
HCT-116
  GI50: 200 nM
MCF7
  GI50: 130 nM
K-562
  GI50: 150 nM
ACHN
  GI50: 2750 nM
HL-60(TB)
  GI50: 250 nM
UO-31
  GI50: 1150 nM
TK-10
  GI50: 690 nM
HS 578T
  GI50: 310 nM
BT-549
  GI50: 130 nM
HT29
  GI50: 400 nM
OVCAR-5
  GI50: 290 nM
NCI-H23
  GI50: 320 nM
MDA-MB-468
  GI50: 140 nM
COLO 205
  GI50: 180 nM
T-47D
  GI50: 150 nM
SNB-75
  GI50: 260 nM
DU-145
  GI50: 360 nM
[1]; 0 h incubation at 37° C.
  (ΔTm ° C.) after incubation at 37° C. for 0 h: 1.2 °C
[1]; 18 h incubation at 37° C.
  (ΔTm ° C.) after incubation at 37° C. for 18 h: 2.1 °C
